The assay has as its system HCV type 1b replicon in Huh-7 luc/neo (Huh-Luc) cells. In words: HCV replicon assay (Huh-Luc, luciferase readout). The class given is cell-based. As to conditions: Hepatitis C virus, Huh-7, 72 h, three days incubation, luciferase activity, read-out: HCV-REP-HUH-LUC_EC50. The source says:
The compounds of formula (I) were examined for inhibitory activity in the HCV replicon. This cellular assay is based on a bicistronic expression construct, as described by Lohmann et al. (1999) Science vol. 285 pp. 110-113 with modifications described by Krieger et al. (2001) Journal of Virology 75: 4614-4624, in a multi-target screening strategy.
In essence, the method was as follows:
The assay utilized the stably transfected cell line Huh-7 luc/neo (hereafter referred to as Huh-Luc). This cell line harbors an RNA encoding a bicistronic expression construct comprising the wild type NS3-NS5B regions of HCV type 1b translated from an Internal Ribosome Entry Site (IRES) from encephalomyocarditis virus (EMCV), preceded by a reporter portion (FfL-luciferase), and a selectable marker portion (neoR, neomycine phosphotransferase). The construct is flanked by 5′ and 3′ NTRs (non-translated regions) from HCV type 1b. Continued culture of the replicon cells in the presence of G418 (neoR) is dependent on the replication of the HCV RNA. The stably transfected replicon cells that express HCV RNA, which replicates autonomously and to high levels, encoding inter alia luciferase, were used for screening the antiviral compounds.
The replicon cells were plated in 384 well plates in the presence of the test and control compounds which were added in various concentrations. Following an incubation of three days, HCV replication was measured by assaying luciferase activity (using standard luciferase assay substrates and reagents and a Perkin Elmer ViewLux™ ultraHTS microplate imager). Replicon cells in the control cultures have high luciferase expression in the absence of any inhibitor. The inhibitory activity of the compound on luciferase activity was monitored on the Huh-Luc cells, enabling a dose-response curve for each test compound. EC50 values were then calculated, which represent the amount of compound required to decrease the level of detected luciferase activity by 50%, or more specifically, to reduce the ability of the genetically linked HCV replicon RNA to replicate.
Background: A replicon is a self-replicating genome or part of one, used to study replication in cells.
Take `COC(=O)N[C@H](C(=O)N1CCC[C@H]1c1nc2ccc(-c3ccc(-c4ccc5nc([C@@H]6CCCN6C(=O)[C@@H](NC(=O)OC)[C@@H](C)OC)[nH]c5c4)nc3)cc2[nH]1)[C@@H](C)OC` [Compound 9]: the EC50 worked out at 0.31 nM.
Take `COC(=O)N[C@H](C(=O)N1CCC[C@H]1c1nc2cc(-c3ccc(-c4ccc5nc([C@@H]6CCCN6C(=O)[C@@H](NC(=O)OC)C(C)C)[nH]c5c4)nn3)ccc2[nH]1)C(C)C` [Compound 1]: the EC50 stood at 0.13 nM.
As for `COC(=O)N[C@H](C(=O)N1CCC[C@H]1c1nc2cc(-c3ncc(-c4ccc5nc([C@@H]6CCCN6C(=O)[C@@H](NC(=O)OC)[C@@H](C)OC)[nH]c5c4)cn3)ccc2[nH]1)[C@@H](C)OC` [Compound 3], the figure is 0.13 nM; as for `COC(=O)N[C@H](C(=O)N1CCC[C@H]1c1nc2cc(-c3ncc(-c4ccc5nc([C@@H]6CCCN6C(=O)[C@@H](NC(=O)OC)C(C)C)[nH]c5c4)cn3)ccc2[nH]1)C(C)C` [Compound 4], 0.03 nM.
Regarding `COC(=O)N[C@H](C(=O)N1CCC[C@H]1c1nc2cc(-c3ncc(-c4ccc5nc([C@@H]6CCCN6C(=O)[C@@H](NC(=O)OC)C6CC6)[nH]c5c4)cn3)ccc2[nH]1)C1CC1` [Compound 7], the EC50 was found to be 0.059 nM.
As for `COC(=O)N[C@@H](C(=O)N1CCC[C@H]1c1nc2cc(-c3ncc(-c4ccc5nc([C@@H]6CCCN6C(=O)[C@H](NC(=O)OC)c6ccccc6)[nH]c5c4)cn3)ccc2[nH]1)c1ccccc1` [Compound 5], the figure is less than 0.015 nM.
As for `COC(=O)N[C@@H](C(=O)N1CCC[C@H]1c1nc2cc(-c3ccc(-c4ccc5nc([C@@H]6CCCN6C(=O)[C@H](NC(=O)OC)c6ccccc6)[nH]c5c4)nn3)ccc2[nH]1)c1ccccc1` [Compound 6], the figure is 0.045 nM.

The values are drawn from patent US20120172368A1, “Bis-Benzimidazole Derivatives” (priority 2009, published 2012).
